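The compound was tested at five concentrations on cells cultured in 96-well plates, with a 48-hour exposure period. GI50 = concentration required for 50% inhibition of growth. TGI: concentration producing complete growth inhibition.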
What was measured:
Assay in all cases: growth of human tumour cells (NCI), 48 h
HCT-15 colon = tested on: HCT-15 colon
SK-OV-3 ovarian = tested on: SK-OV-3 ovarian
HOP-62 NSCLC = tested on: HOP-62 NSCLC
RPMI-8226 leukemia = tested on: RPMI-8226 leukemia
MCF7 breast = tested on: MCF7 breast
CAKI-1 renal = tested on: CAKI-1 renal
SK-MEL-2 melanoma = tested on: SK-MEL-2 melanoma
CCRF-CEM leukemia = tested on: CCRF-CEM leukemia
UACC-62 melanoma = tested on: UACC-62 melanoma
KM12 colon = tested on: KM12 colon
MDA-MB-231 breast = tested on: MDA-MB-231 breast
NCI-H226 lung = tested on: NCI-H226 lung
HT29 colon = tested on: HT29 colon
LOX IMVI melanoma = tested on: LOX IMVI melanoma
M14 melanoma = tested on: M14 melanoma
SNB-19 CNS = tested on: SNB-19 CNS
A549 NSCLC = tested on: A549 NSCLC
COLO 205 colon = tested on: COLO 205 colon
OVCAR-4 ovarian = tested on: OVCAR-4 ovarian
SK-MEL-5 melanoma = tested on: SK-MEL-5 melanoma
MALME-3M melanoma = tested on: MALME-3M melanoma
IGROV1 ovarian = tested on: IGROV1 ovarian
TK-10 renal = tested on: TK-10 renal
RXF 393 renal = tested on: RXF 393 renal
SF-295 CNS = tested on: SF-295 CNS
SW-620 colon = tested on: SW-620 colon
OVCAR-3 ovarian = tested on: OVCAR-3 ovarian
MDA-MB-435 = tested on: MDA-MB-435
HCC-2998 colon = tested on: HCC-2998 colon
SN12C renal = tested on: SN12C renal
UACC-257 melanoma = tested on: UACC-257 melanoma
HS 578T breast = tested on: HS 578T breast
ACHN renal = tested on: ACHN renal
HCT-116 colon = tested on: HCT-116 colon
T-47D breast = tested on: T-47D breast
786-0 renal = tested on: 786-0 renal
SNB-75 CNS = tested on: SNB-75 CNS
OVCAR-5 ovarian = tested on: OVCAR-5 ovarian
HOP-92 NSCLC = tested on: HOP-92 NSCLC
DU-145 prostate = tested on: DU-145 prostate
UO-31 renal = tested on: UO-31 renal
NCI-H522 lung = tested on: NCI-H522 lung
NCI-H23 lung = tested on: NCI-H23 lung
NCI-H460 lung = tested on: NCI-H460 lung
OVCAR-8 ovarian = tested on: OVCAR-8 ovarian
MOLT-4 leukemia = tested on: MOLT-4 leukemia
SF-539 CNS = tested on: SF-539 CNS
K-562 leukemia = tested on: K-562 leukemia
SK-MEL-28 melanoma = tested on: SK-MEL-28 melanoma
A498 renal = tested on: A498 renal
SF-268 CNS = tested on: SF-268 CNS
U251 CNS = tested on: U251 CNS
PC-3 prostate = tested on: PC-3 prostate
HL-60(TB) leukemia = tested on: HL-60(TB) leukemia
BT-549 breast = tested on: BT-549 breast
NCI/ADR-RES ovarian = tested on: NCI/ADR-RES ovarian

Cn1c([N+](=O)[O-])cnc1/C=C1\Oc2ccc(Br)cc2C1=O
GI50 (HCT-15 colon): 193 nM | TGI (HCT-15 colon): 657 nM | GI50 (SK-OV-3 ovarian): 1450 nM | TGI (SK-OV-3 ovarian): 6080 nM | GI50 (HOP-62 NSCLC): 1140 nM | TGI (HOP-62 NSCLC): 3950 nM | GI50 (RPMI-8226 leukemia): 352 nM | TGI (RPMI-8226 leukemia): 2870 nM | GI50 (MCF7 breast): 330 nM | TGI (MCF7 breast): 7970 nM | GI50 (CAKI-1 renal): 277 nM | TGI (CAKI-1 renal): 950 nM | GI50 (SK-MEL-2 melanoma): 445 nM | TGI (SK-MEL-2 melanoma): 1960 nM | GI50 (CCRF-CEM leukemia): 200 nM | TGI (CCRF-CEM leukemia): 706 nM | GI50 (UACC-62 melanoma): 993 nM | TGI (UACC-62 melanoma): 2680 nM | GI50 (KM12 colon): 312 nM | TGI (KM12 colon): 957 nM | GI50 (MDA-MB-231 breast): 374 nM | TGI (MDA-MB-231 breast): 4810 nM | GI50 (NCI-H226 lung): 1380 nM | TGI (NCI-H226 lung): 4890 nM | GI50 (HT29 colon): 231 nM | TGI (HT29 colon): 622 nM | GI50 (LOX IMVI melanoma): 209 nM | TGI (LOX IMVI melanoma): 543 nM | GI50 (M14 melanoma): 445 nM | TGI (M14 melanoma): 2100 nM | GI50 (SNB-19 CNS): 1190 nM | TGI (SNB-19 CNS): 6170 nM | GI50 (A549 NSCLC): 927 nM | TGI (A549 NSCLC): 5200 nM | GI50 (COLO 205 colon): 925 nM | TGI (COLO 205 colon): 3170 nM | GI50 (OVCAR-4 ovarian): 1580 nM | TGI (OVCAR-4 ovarian): > 20200 nM | GI50 (SK-MEL-5 melanoma): 213 nM | TGI (SK-MEL-5 melanoma): 586 nM | GI50 (MALME-3M melanoma): 683 nM | TGI (MALME-3M melanoma): 2210 nM | GI50 (IGROV1 ovarian): 469 nM | GI50 (TK-10 renal): 671 nM | TGI (TK-10 renal): 2640 nM | GI50 (RXF 393 renal): 416 nM | TGI (RXF 393 renal): 1940 nM | GI50 (SF-295 CNS): 1700 nM | TGI (SF-295 CNS): 7850 nM | GI50 (SW-620 colon): 157 nM | TGI (SW-620 colon): 537 nM | GI50 (OVCAR-3 ovarian): 276 nM | TGI (OVCAR-3 ovarian): 690 nM | GI50 (MDA-MB-435): 253 nM | TGI (MDA-MB-435): 731 nM | GI50 (HCC-2998 colon): 995 nM | TGI (HCC-2998 colon): 3620 nM | GI50 (SN12C renal): 421 nM | TGI (SN12C renal): 4160 nM | GI50 (UACC-257 melanoma): 854 nM | TGI (UACC-257 melanoma): 4070 nM | GI50 (HS 578T breast): 890 nM | TGI (HS 578T breast): > 23400 nM | GI50 (ACHN renal): 212 nM | TGI (ACHN renal): 585 nM | GI50 (HCT-116 colon): 179 nM | TGI (HCT-116 colon): 652 nM | GI50 (T-47D breast): 5410 nM | TGI (T-47D breast): > 75900 nM | GI50 (786-0 renal): 557 nM | TGI (786-0 renal): 2070 nM | GI50 (SNB-75 CNS): 1040 nM | TGI (SNB-75 CNS): 4450 nM | GI50 (OVCAR-5 ovarian): 1480 nM | TGI (OVCAR-5 ovarian): 5640 nM | GI50 (HOP-92 NSCLC): 369 nM | TGI (HOP-92 NSCLC): 2580 nM | GI50 (DU-145 prostate): 338 nM | TGI (DU-145 prostate): 933 nM | GI50 (UO-31 renal): 240 nM | TGI (UO-31 renal): 765 nM | GI50 (NCI-H522 lung): 357 nM | TGI (NCI-H522 lung): 1040 nM | GI50 (NCI-H23 lung): 432 nM | TGI (NCI-H23 lung): 2350 nM | GI50 (NCI-H460 lung): 253 nM | TGI (NCI-H460 lung): 654 nM | GI50 (OVCAR-8 ovarian): 266 nM | GI50 (MOLT-4 leukemia): 316 nM | TGI (MOLT-4 leukemia): 7300 nM | GI50 (SF-539 CNS): 922 nM | TGI (SF-539 CNS): 3280 nM | GI50 (K-562 leukemia): 400 nM | TGI (K-562 leukemia): 3280 nM | GI50 (SK-MEL-28 melanoma): 532 nM | TGI (SK-MEL-28 melanoma): 2870 nM | GI50 (A498 renal): 1720 nM | TGI (A498 renal): 4670 nM | GI50 (SF-268 CNS): 299 nM | TGI (SF-268 CNS): 933 nM | GI50 (U251 CNS): 466 nM | TGI (U251 CNS): 2540 nM | GI50 (PC-3 prostate): 471 nM | GI50 (HL-60(TB) leukemia): 334 nM | TGI (HL-60(TB) leukemia): 1570 nM | GI50 (BT-549 breast): 715 nM | TGI (BT-549 breast): 4760 nM | GI50 (NCI/ADR-RES ovarian): 609 nM | TGI (NCI/ADR-RES ovarian): 74400 nM

Reference: PubChem BioAssay (NCI)
